Experiments:
Test in all cases: post-emergence herbicidal activity, greenhouse
Assay type in all cases: in vivo
Pennsylvania Smartweed = tested on: Pennsylvania Smartweed
Outline: (§1)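 Plants grown from seed or vegetative propagules in topsoil pans on a greenhouse sand bench, watered from below, were atomizer-sprayed at two to three weeks of age. The spray carried about 0.4% by weight emulsifier. Injury relative to unsprayed control pans was scored approximately two and four weeks after treatment.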

Rice = conditions: Table III
Outline: as §1

Panicum Spp = conditions: Table III
Outline: as §1

Morningglory = tested on: Morningglory
Outline: as §1

Soybean = conditions: Table III
Outline: as §1

Johnsongrass = conditions: Table II
Outline: as §1

Velvetleaf = tested on: Velvetleaf
Outline: as §1

Large Crabgrass = conditions: Table III
Outline: as §1

Barnyardgrass = tested on: Barnyardgrass
Outline: as §1

[1] = Table II, 2 WAT, 5.6 kg/h, formulated in anhydrous tetrahydrofuran
[2] = Table II, 2 WAT, 11.2 kg/h, formulated in anhydrous tetrahydrofuran
[3] = Table II, 4 WAT, 5.6 kg/h, formulated in anhydrous tetrahydrofuran
[4] = Table II, 4 WAT, 11.2 kg/h, formulated in anhydrous tetrahydrofuran
[5] = Table III, 2 WAT, 1.1 kg/h, formulated in anhydrous tetrahydrofuran
[6] = Table III, 2 WAT, .28 kg/h, formulated in anhydrous tetrahydrofuran
[7] = Table III, 4 WAT, 1.1 kg/h, formulated in anhydrous tetrahydrofuran
[8] = Table III, 4 WAT, .28 kg/h, formulated in anhydrous tetrahydrofuran
[9] = 2 WAT, 1.1 kg/h, formulated in anhydrous tetrahydrofuran
[10] = 2 WAT, 5.6 kg/h, formulated in anhydrous tetrahydrofuran
[11] = 2 WAT, .28 kg/h, formulated in anhydrous tetrahydrofuran
[12] = 4 WAT, 1.1 kg/h, formulated in anhydrous tetrahydrofuran
[13] = 4 WAT, 5.6 kg/h, formulated in anhydrous tetrahydrofuran
[14] = 4 WAT, .28 kg/h, formulated in anhydrous tetrahydrofuran
[15] = Table III, 2 WAT, 5.6 kg/h, formulated in anhydrous tetrahydrofuran
[16] = Table III, 4 WAT, 5.6 kg/h, formulated in anhydrous tetrahydrofuran

CCCCOC(=O)CNCP(=O)(O)O[Si](c1ccccc1)(c1ccccc1)C(C)(C)C [Ex. 6, Glycine, N--((([(1,1-Dimethylethyl)Diphenylsilyl]Oxy)Hydroxyphosphinyl)methyl)-Butyl Ester]
Plant Response Index (F) (Pennsylvania Smartweed; Table II, 2 WAT, 5.6 kg/h): 0 (0-24% inhibition) | Plant Response Index (F) (Pennsylvania Smartweed; [1]): 0 (0-24% inhibition) | Plant Response Index (F) (Pennsylvania Smartweed; Table II, 2 WAT, 11.2 kg/h): 2 (50-74% inhibition) | Plant Response Index (F) (Pennsylvania Smartweed; [2]): 0 (0-24% inhibition) | Plant Response Index (F) (Pennsylvania Smartweed; Table II, 4 WAT, 5.6 kg/h): 0 (0-24% inhibition) | Plant Response Index (F) (Pennsylvania Smartweed; [3]): 0 (0-24% inhibition) | Plant Response Index (F) (Pennsylvania Smartweed; Table II, 4 WAT, 11.2 kg/h): 2 (50-74% inhibition) | Plant Response Index (F) (Pennsylvania Smartweed; [4]): 0 (0-24% inhibition) | Plant Response Index (F) (Pennsylvania Smartweed; Table III, 2 WAT, 1.1 kg/h): 2 (50-74% inhibition) | Plant Response Index (F) (Pennsylvania Smartweed; [5]): 3 (75-99% inhibition) | Plant Response Index (F) (Pennsylvania Smartweed; Table III, 2 WAT, 5.6 kg/h): 3 (75-99% inhibition) | Plant Response Index (F) (Pennsylvania Smartweed; Table III, 2 WAT, .28 kg/h): 3 (75-99% inhibition) | Plant Response Index (F) (Pennsylvania Smartweed; [6]): 1 (25-49% inhibition) | Plant Response Index (F) (Pennsylvania Smartweed; Table III, 4 WAT, 1.1 kg/h): 3 (75-99% inhibition) | Plant Response Index (F) (Pennsylvania Smartweed; [7]): 4 (100% inhibition) | Plant Response Index (F) (Pennsylvania Smartweed; Table III, 4 WAT, 5.6 kg/h): 3 (75-99% inhibition) | Plant Response Index (F) (Pennsylvania Smartweed; [8]): 1 (25-49% inhibition) | Plant Response Index (O) (Rice; 2 WAT, 1.1 kg/h): 1 (25-49% inhibition) | Plant Response Index (O) (Rice; [9]): 0 (0-24% inhibition) | Plant Response Index (O) (Rice; 2 WAT, 5.6 kg/h): 2 (50-74% inhibition) | Plant Response Index (O) (Rice; [10]): 1 (25-49% inhibition) | Plant Response Index (O) (Rice; 2 WAT, .28 kg/h): 0 (0-24% inhibition) | Plant Response Index (O) (Rice; [11]): 0 (0-24% inhibition) | Plant Response Index (O) (Rice; 4 WAT, 1.1 kg/h): 1 (25-49% inhibition) | Plant Response Index (O) (Rice; [12]): 0 (0-24% inhibition) | Plant Response Index (O) (Rice; 4 WAT, 5.6 kg/h): 3 (75-99% inhibition) | Plant Response Index (O) (Rice; [13]): 2 (50-74% inhibition) | Plant Response Index (O) (Rice; [14]): 0 (0-24% inhibition) | Plant Response Index (S) (Panicum Spp; 2 WAT, 1.1 kg/h): 3 (75-99% inhibition) | Plant Response Index (S) (Panicum Spp; [9]): 2 (50-74% inhibition) | Plant Response Index (S) (Panicum Spp; 2 WAT, 5.6 kg/h): 4 (100% inhibition) | Plant Response Index (S) (Panicum Spp; [10]): 2 (50-74% inhibition) | Plant Response Index (S) (Panicum Spp; 2 WAT, .28 kg/h): 2 (50-74% inhibition) | Plant Response Index (S) (Panicum Spp; [11]): 0 (0-24% inhibition) | Plant Response Index (S) (Panicum Spp; 4 WAT, 1.1 kg/h): 3 (75-99% inhibition) | Plant Response Index (S) (Panicum Spp; [12]): 2 (50-74% inhibition) | Plant Response Index (S) (Panicum Spp; 4 WAT, 5.6 kg/h): 4 (100% inhibition) | Plant Response Index (S) (Panicum Spp; [13]): 3 (75-99% inhibition) | Plant Response Index (S) (Panicum Spp; [14]): 0 (0-24% inhibition) | Plant Response Index (D) (Morningglory; Table II, 2 WAT, 5.6 kg/h): 2 (50-74% inhibition) | Plant Response Index (D) (Morningglory; [1]): 1 (25-49% inhibition) | Plant Response Index (D) (Morningglory; Table II, 2 WAT, 11.2 kg/h): 2 (50-74% inhibition) | Plant Response Index (D) (Morningglory; [2]): 2 (50-74% inhibition) | Plant Response Index (D) (Morningglory; Table II, 4 WAT, 5.6 kg/h): 2 (50-74% inhibition) | Plant Response Index (D) (Morningglory; [3]): 2 (50-74% inhibition) | Plant Response Index (D) (Morningglory; Table II, 4 WAT, 11.2 kg/h): 2 (50-74% inhibition) | Plant Response Index (D) (Morningglory; [4]): 2 (50-74% inhibition) | Plant Response Index (D) (Morningglory; Table III, 2 WAT, 1.1 kg/h): 2 (50-74% inhibition) | Plant Response Index (D) (Morningglory; [5]): 2 (50-74% inhibition) | Plant Response Index (D) (Morningglory; Table III, 2 WAT, 5.6 kg/h): 2 (50-74% inhibition) | Plant Response Index (D) (Morningglory; [15]): 2 (50-74% inhibition) | Plant Response Index (D) (Morningglory; Table III, 2 WAT, .28 kg/h): 1 (25-49% inhibition) | Plant Response Index (D) (Morningglory; [6]): 1 (25-49% inhibition) | Plant Response Index (D) (Morningglory; Table III, 4 WAT, 1.1 kg/h): 2 (50-74% inhibition) | Plant Response Index (D) (Morningglory; [7]): 2 (50-74% inhibition) | Plant Response Index (D) (Morningglory; Table III, 4 WAT, 5.6 kg/h): 3 (75-99% inhibition) | Plant Response Index (D) (Morningglory; [16]): 2 (50-74% inhibition) | Plant Response Index (D) (Morningglory; [8]): 1 (25-49% inhibition) | Plant Response Index (L) (Soybean; 2 WAT, 1.1 kg/h): 1 (25-49% inhibition) | Plant Response Index (L) (Soybean; [9]): 1 (25-49% inhibition) | Plant Response Index (L) (Soybean; 2 WAT, 5.6 kg/h): 1 (25-49% inhibition) | Plant Response Index (L) (Soybean; [10]): 2 (50-74% inhibition) | Plant Response Index (L) (Soybean; 2 WAT, .28 kg/h): 0 (0-24% inhibition) | Plant Response Index (L) (Soybean; [11]): 1 (25-49% inhibition) | Plant Response Index (L) (Soybean; 4 WAT, 1.1 kg/h): 1 (25-49% inhibition) | Plant Response Index (L) (Soybean; [12]): 1 (25-49% inhibition) | Plant Response Index (L) (Soybean; 4 WAT, 5.6 kg/h): 1 (25-49% inhibition) | Plant Response Index (L) (Soybean; [13]): 2 (50-74% inhibition) | Plant Response Index (L) (Soybean; [14]): 1 (25-49% inhibition) | Plant Response Index (I) (Johnsongrass; 2 WAT, 5.6 kg/h): 0 (0-24% inhibition) | Plant Response Index (I) (Johnsongrass; [10]): 0 (0-24% inhibition) | Plant Response Index (I) (Johnsongrass; 2 WAT, 11.2 kg/h): 1 (25-49% inhibition) | Plant Response Index (I) (Johnsongrass; 2 WAT, 11.2 kg/h, formulated in anhydrous tetrahydrofuran): 0 (0-24% inhibition) | Plant Response Index (I) (Johnsongrass; 4 WAT, 5.6 kg/h): 2 (50-74% inhibition) | Plant Response Index (I) (Johnsongrass; [13]): 1 (25-49% inhibition) | Plant Response Index (I) (Johnsongrass; 4 WAT, 11.2 kg/h): 0 (0-24% inhibition) | Plant Response Index (I) (Johnsongrass; 4 WAT, 11.2 kg/h, formulated in anhydrous tetrahydrofuran): 1 (25-49% inhibition) | Plant Response Index (C) (Velvetleaf; Table II, 2 WAT, 5.6 kg/h): 0 (0-24% inhibition) | Plant Response Index (C) (Velvetleaf; [1]): 0 (0-24% inhibition) | Plant Response Index (C) (Velvetleaf; Table II, 2 WAT, 11.2 kg/h): 2 (50-74% inhibition) | Plant Response Index (C) (Velvetleaf; [2]): 0 (0-24% inhibition) | Plant Response Index (C) (Velvetleaf; Table II, 4 WAT, 5.6 kg/h): 0 (0-24% inhibition) | Plant Response Index (C) (Velvetleaf; [3]): 0 (0-24% inhibition) | Plant Response Index (C) (Velvetleaf; Table II, 4 WAT, 11.2 kg/h): 1 (25-49% inhibition) | Plant Response Index (C) (Velvetleaf; [4]): 1 (25-49% inhibition) | Plant Response Index (C) (Velvetleaf; Table III, 2 WAT, 1.1 kg/h): 1 (25-49% inhibition) | Plant Response Index (C) (Velvetleaf; [5]): 1 (25-49% inhibition) | Plant Response Index (C) (Velvetleaf; Table III, 2 WAT, 5.6 kg/h): 2 (50-74% inhibition) | Plant Response Index (C) (Velvetleaf; [15]): 2 (50-74% inhibition) | Plant Response Index (C) (Velvetleaf; Table III, 2 WAT, .28 kg/h): 0 (0-24% inhibition) | Plant Response Index (C) (Velvetleaf; [6]): 0 (0-24% inhibition) | Plant Response Index (C) (Velvetleaf; Table III, 4 WAT, 1.1 kg/h): 1 (25-49% inhibition) | Plant Response Index (C) (Velvetleaf; [7]): 1 (25-49% inhibition) | Plant Response Index (C) (Velvetleaf; Table III, 4 WAT, 5.6 kg/h): 2 (50-74% inhibition) | Plant Response Index (C) (Velvetleaf; [16]): 2 (50-74% inhibition) | Plant Response Index (C) (Velvetleaf; [8]): 0 (0-24% inhibition) | Plant Response Index (T) (Large Crabgrass; 2 WAT, 1.1 kg/h): 4 (100% inhibition) | Plant Response Index (T) (Large Crabgrass; [9]): 4 (100% inhibition) | Plant Response Index (T) (Large Crabgrass; 2 WAT, 5.6 kg/h): 4 (100% inhibition) | Plant Response Index (T) (Large Crabgrass; [10]): 4 (100% inhibition) | Plant Response Index (T) (Large Crabgrass; 2 WAT, .28 kg/h): 4 (100% inhibition) | Plant Response Index (T) (Large Crabgrass; [11]): 1 (25-49% inhibition) | Plant Response Index (T) (Large Crabgrass; 4 WAT, 1.1 kg/h): 4 (100% inhibition) | Plant Response Index (T) (Large Crabgrass; [12]): 4 (100% inhibition) | Plant Response Index (T) (Large Crabgrass; 4 WAT, 5.6 kg/h): 4 (100% inhibition) | Plant Response Index (T) (Large Crabgrass; [13]): 4 (100% inhibition) | Plant Response Index (T) (Large Crabgrass; [14]): 0 (0-24% inhibition) | Plant Response Index (K) (Barnyardgrass; Table II, 2 WAT, 5.6 kg/h): 1 (25-49% inhibition) | Plant Response Index (K) (Barnyardgrass; [1]): 1 (25-49% inhibition) | Plant Response Index (K) (Barnyardgrass; Table II, 2 WAT, 11.2 kg/h): 2 (50-74% inhibition) | Plant Response Index (K) (Barnyardgrass; [2]): 1 (25-49% inhibition) | Plant Response Index (K) (Barnyardgrass; Table II, 4 WAT, 5.6 kg/h): 2 (50-74% inhibition) | Plant Response Index (K) (Barnyardgrass; [3]): 2 (50-74% inhibition) | Plant Response Index (K) (Barnyardgrass; Table II, 4 WAT, 11.2 kg/h): 3 (75-99% inhibition) | Plant Response Index (K) (Barnyardgrass; [4]): 1 (25-49% inhibition) | Plant Response Index (K) (Barnyardgrass; Table III, 2 WAT, 1.1 kg/h): 2 (50-74% inhibition) | Plant Response Index (K) (Barnyardgrass; [5]): 2 (50-74% inhibition) | Plant Response Index (K) (Barnyardgrass; Table III, 2 WAT, 5.6 kg/h): 3 (75-99% inhibition) | Plant Response Index (K) (Barnyardgrass; [15]): 2 (50-74% inhibition) | Plant Response Index (K) (Barnyardgrass; Table III, 2 WAT, .28 kg/h): 2 (50-74% inhibition) | Plant Response Index (K) (Barnyardgrass; [6]): 0 (0-24% inhibition) | Plant Response Index (K) (Barnyardgrass; Table III, 4 WAT, 1.1 kg/h): 2 (50-74% inhibition) | Plant Response Index (K) (Barnyardgrass; [7]): 2 (50-74% inhibition) | Plant Response Index (K) (Barnyardgrass; Table III, 4 WAT, 5.6 kg/h): 3 (75-99% inhibition) | Plant Response Index (K) (Barnyardgrass; [16]): 2 (50-74% inhibition) | Plant Response Index (K) (Barnyardgrass; [8]): 0 (0-24% inhibition)

From patent US4471131A, “Novel silyl esters of N-phosphonomethylglycine” (Monsanto Company, priority 1983, dated 1984)
